Values joined by “and” are separate entries in the source; they are usually repeats but may differ in a detail not shown here. Identical values can stand only once.
Experiments:
Test in all cases: Synthesizing Selective Agonists for the ?7 Nicotinic Receptor with in situ Click-Chemistry on Acetylcholine Binding Protein Templates.
[1] = target: Neuronal acetylcholine receptor subunit alpha-7 (Homo sapiens, UniProt P36544); settings: pH 7.4; 37 °C
Description: (§1) Assay Description 2 Assays used to generate Ki or EC50 values. 1) SPA Assay - Quick screen binding assays were performed using 100 l of 0.2 mg/ml anti-mouse SPA antibody-binding beads (Amersham Biosciences) mixed with 33.6 g of monoclonal anti-FLAG M2 antibody from mouse (Sigma) in 0.1 M NaPO4 buffer, pH 7.0 (SPA mixture). Media (5l) collected 2 days after transfection were added to the mixture and finally 10 l of (+)-[3H]epibatidine (PerkinElmer Life Sciences) was added at a final concentration of 10 nM. Solutions were each counted for 1 min on either a Beckman LS 6500 liquid scintillation counter or Wallac 1450 Microbeta Trilux. Negative and positive controls consisted of media (5 l) from the respective transfections. Nonexpressing mutants were transfected and verified de novo in triplicate. Western immunoblots were also performed upon media (15 l) from transfections to verify the lack of expression. Competition curves and direct binding were measured following the protocol p

[2] = target: Neuronal acetylcholine receptor subunit alpha-4 (Homo sapiens, UniProt P43681); settings: pH 7.4; 37 °C
Chain of Neuronal acetylcholine receptor subunit alpha-4 (P43681 whole entry): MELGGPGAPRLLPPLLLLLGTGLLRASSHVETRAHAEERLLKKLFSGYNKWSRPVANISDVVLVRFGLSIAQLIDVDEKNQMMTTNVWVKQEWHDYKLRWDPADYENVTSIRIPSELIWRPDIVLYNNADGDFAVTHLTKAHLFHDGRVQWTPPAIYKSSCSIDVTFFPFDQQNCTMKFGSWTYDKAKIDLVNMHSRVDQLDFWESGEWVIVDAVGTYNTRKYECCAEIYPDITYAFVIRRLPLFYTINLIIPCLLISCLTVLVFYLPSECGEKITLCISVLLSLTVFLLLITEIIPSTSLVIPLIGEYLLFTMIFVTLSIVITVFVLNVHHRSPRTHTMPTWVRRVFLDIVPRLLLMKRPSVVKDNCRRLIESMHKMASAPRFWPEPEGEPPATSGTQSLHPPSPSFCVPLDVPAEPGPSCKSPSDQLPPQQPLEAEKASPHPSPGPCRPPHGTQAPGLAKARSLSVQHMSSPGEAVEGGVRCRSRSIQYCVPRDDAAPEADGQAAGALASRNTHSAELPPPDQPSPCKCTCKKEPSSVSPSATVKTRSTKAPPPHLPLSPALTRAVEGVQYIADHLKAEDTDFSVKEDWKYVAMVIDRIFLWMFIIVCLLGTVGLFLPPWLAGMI
Description: as §1

[3] = target: T1, Soluble acetylcholine receptor (Aplysia californica, UniProt Q8WSF8); settings: pH 7.4; 20 °C
T1 sequence (Q8WSF8 whole entry): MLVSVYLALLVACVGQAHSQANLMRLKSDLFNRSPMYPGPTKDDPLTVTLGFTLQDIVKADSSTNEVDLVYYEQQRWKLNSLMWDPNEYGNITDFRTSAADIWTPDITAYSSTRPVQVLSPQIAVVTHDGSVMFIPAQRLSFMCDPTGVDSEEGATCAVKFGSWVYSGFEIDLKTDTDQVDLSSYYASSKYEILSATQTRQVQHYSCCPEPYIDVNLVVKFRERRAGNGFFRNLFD
Description: as §1

[4] = target: T2, 5-hydroxytryptamine receptor 3A (Mus musculus, UniProt P23979); settings: pH 7.4; 37 °C
T2 sequence (P23979 whole entry): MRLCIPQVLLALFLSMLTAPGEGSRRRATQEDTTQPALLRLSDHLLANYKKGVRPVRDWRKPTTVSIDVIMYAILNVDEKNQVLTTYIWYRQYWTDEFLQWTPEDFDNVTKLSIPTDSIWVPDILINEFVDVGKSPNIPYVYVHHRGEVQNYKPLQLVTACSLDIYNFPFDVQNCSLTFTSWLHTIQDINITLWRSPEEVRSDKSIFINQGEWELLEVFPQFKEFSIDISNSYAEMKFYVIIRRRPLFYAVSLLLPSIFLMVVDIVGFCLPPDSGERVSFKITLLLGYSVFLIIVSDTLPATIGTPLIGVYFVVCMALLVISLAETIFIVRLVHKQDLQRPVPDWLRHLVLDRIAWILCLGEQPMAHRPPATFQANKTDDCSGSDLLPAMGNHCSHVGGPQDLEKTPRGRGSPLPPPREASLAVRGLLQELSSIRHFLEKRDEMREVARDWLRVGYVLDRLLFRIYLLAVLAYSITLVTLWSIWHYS
Description: as §1

[5] = target: Acetylcholine-binding protein (Lymnaea stagnalis, UniProt P58154); settings: pH 7.4; 20 °C
Chain of Acetylcholine-binding protein (P58154 whole entry): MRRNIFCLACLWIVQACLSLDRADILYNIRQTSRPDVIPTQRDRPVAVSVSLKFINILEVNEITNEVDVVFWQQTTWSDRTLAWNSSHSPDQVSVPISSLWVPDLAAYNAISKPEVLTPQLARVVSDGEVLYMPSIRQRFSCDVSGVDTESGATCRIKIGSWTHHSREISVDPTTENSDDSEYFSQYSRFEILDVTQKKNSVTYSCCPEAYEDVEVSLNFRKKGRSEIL
Description: as §1

Chain of Neuronal acetylcholine receptor subunit alpha-7 (P36544 whole entry): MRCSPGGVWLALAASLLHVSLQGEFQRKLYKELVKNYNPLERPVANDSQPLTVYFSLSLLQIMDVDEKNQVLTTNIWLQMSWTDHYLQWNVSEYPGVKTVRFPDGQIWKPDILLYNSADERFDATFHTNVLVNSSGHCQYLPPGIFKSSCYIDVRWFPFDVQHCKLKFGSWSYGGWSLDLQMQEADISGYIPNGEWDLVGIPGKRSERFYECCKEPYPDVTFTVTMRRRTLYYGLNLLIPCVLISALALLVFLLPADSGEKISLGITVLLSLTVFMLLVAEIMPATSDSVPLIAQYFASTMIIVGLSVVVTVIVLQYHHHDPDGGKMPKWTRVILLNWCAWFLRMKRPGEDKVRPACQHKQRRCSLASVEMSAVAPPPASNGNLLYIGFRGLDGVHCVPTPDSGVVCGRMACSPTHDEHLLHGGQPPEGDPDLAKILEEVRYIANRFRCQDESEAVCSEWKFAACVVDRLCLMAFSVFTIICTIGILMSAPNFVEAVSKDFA

| Compound | EC50 [1] [µM] | Ki [2] [µM] | Ki [3] | Ki [4] [µM] | Ki [5] [µM] |
| --- | --- | --- | --- | --- | --- |
| CN1[C@@H]2CC[C@H]1C[C@H](n1cc(CNC(=O)N3c4ccccc4CCc4ccccc43)nn1)C2 [23t] | > 30 | > 30 | 1.3 µM and 1.02 µM and > 5 µM | > 30 | > 5 |
| O=c1cc(OCc2cnnn2CC[N+]23CCC(CC2)CC3)c2ccccc2[nH]1 [3'] | 2.9 | 30 | 0.25 µM and 0.29 µM | > 30 | 0.024 |
| C[N+]1(C)[C@@H]2CC[C@H]1C[C@H](n1cc(-c3cc(C(F)(F)F)cc(C(F)(F)F)c3)nn1)C2 [17q] | 0.9 | 5 | 0.11 µM and 0.3 µM and 0.4 µM | 8 | 0.13 |
| CN1[C@@H]2CC[C@H]1C[C@H](n1cc(C(O)(c3ccccc3)C(F)(F)F)nn1)C2 (stereo not given in full) [19t] | > 30 | > 30 | > 5 µM | > 30 | > 5 |
| CN1[C@@H]2CC[C@H]1C[C@H](n1cc(CSc3nc4ccccc4s3)nn1)C2 [15t] | 12 | 32 | 0.24 µM and 0.14 µM and 0.11 µM | 32 | 0.04 |
| C[N+]1(C)[C@@H]2CC[C@H]1C[C@H](n1cc(CNC(=O)N3c4ccccc4CCc4ccccc43)nn1)C2 [23q] | 8 | 30 | 0.42 µM and 1 µM and 2 µM | > 30 | 0.5 |

Reference: BindingDB's records for doi:10.1124/mol.112.080291 (University of California San Diego, 2014)
